The values that follow come from patent US10562857B2 (AFASCI, Inc., priority 2015, dated 2020).

Structures are written as SMILES.

One data set deals with T1, Cav3.1 (Homo sapiens, UniProt O43497).
T1 construct: expressed in transfected cells; host or cells: HEK-293, tetracycline inducible expression system (Invitrogen)
As to the kind of experiment: Whole-cell patch clamp of T-type Cav3.1 channel expressed in HEK293 cells. The settings on record: Table 2. The data set is classed as cell-based. As to the method:
(§1) Cav3.1, Cav3.2 or Cav3.3 channels were expressed in human embryonic kidney (HEK)-293 cells using a tetracycline inducible expression system (Invitrogen). Cells were maintained in 25 cm^2 tissue culture flasks at 37° C., 5% CO2, and 100% relative humidity in D-MEM/F12 (Dulbecco's Modified Eagle Medium/Nutrient Mixture F-12; Gibco) supplemented with fetal bovine serum (FBS, 10% v/v), sodium pyruvate (0.5 mM, Gibco), penicillin-streptomycin (100 U/mL, 100 μg/mL) and Geneticin® Selective antibiotic (G418; 0.5 mg/mL). Cells were detached from the flask base using a non-enzymatic cell dissociation solution (Cellstripper, Corning), removed and re-seeded on to poly-D-lysine coated glass coverslips in 35 mm dishes.
(§2) Whole-cell voltage clamp recordings were performed on rat or mouse DRG neurons within 2 days after acutely dissociation or cultured HEK293 cells expressing T-type channels (encoded by Cav3.1, Cav3.2 or Cav3.3 channels). All experiments were performed at room temperature (around 21° C.). Whole-cell currents were recorded using a MultiClamp 700B amplifier and analyzed offline with pCLAMP10.4 software (Molecular Devices, LLC, Sunnyvale Calif., USA). […] Since the sodium ions were absent in the external solution, tetrodoctoxin was not needed. Calcium currents were recorded at a holding potential of −100 mV and then depolarized to −30 mV for 100 ms to activate either Cav3.1, Cav3.2, or Cav3.3 expressed in HEK cells. An interpulse interval of 10 seconds allowed the channel recovery from inactivation, and achieved stable current recordings. To record sodium (Na^+) currents in DRG neurons, the external solution used the modified Krebs solution specified above. The internal solution was composed (in mM) of 120 CsF, 10 HEPES, 11 EGTA, 1 CaCl2, 1 MgCl2, 10 TEA-Cl, 4 MgATP and 0.3 MgGTP (pH 7.3-7.4 adjusted with CsOH). […] To record potassium currents in DRG neurons, the external solution used the modified Kreb's solution specified above. The internal solution was composed (in mM) of 65 KCl, 80 KF, 5 KOH, 10 EGTA, 2 MgATP (pH 7.3-7.4 adjusted with KOH). Recording electrodes were fabricated using a P-87 puller (Sutter Instrument Co., Novato, Calif., USA). The tip of resistance was 3-4 MQ in bath and the series resistance was less than 10 MΩ after whole cell configuration. All reagents were purchased from Sigma unless specified otherwise. Test compounds were usually applied via a rapid solution exchange system with 8 fine polyplastic tubings (100 μm, OD) glued in a holder in parallel and located closely to the recorded cells. The current responses were normalized to the control, percent inhibition was calculated and sigmoidal dose-response curves were generated using XLFit (IDBS, Surrey, UK) or Prism (GraphPad Software, La Jolla, Calif., US) to calculate IC50 values and Hill slopes using the following equation Y=Bottom+(Top−Bottom)/(1+10^((Log EC50−X)[…])).
(The patch-clamp technique gives a direct electrical read-out from membranes.)

In data set [1] the test system is PTZ-induced seizures in mice. As to the kind of experiment: Pentylenetetrazol (PTZ)-induced seizures in mice. The data set is classed as in vivo, mouse. The following applies: for latency to seizures / fatality latency / fatality rate: 30 mg/kg I.P., PTZ 40 mg/kg I.P.; for fatality latency / fatality rate: 20 min cutoff; for PTZ-induced Fatality (%): 30 mg/kg I.P. 60 min before PTZ 40 mg/kg I.P., death within 20 min. As to the method:
FIG. 10. […] Sixty minutes (min) prior to receiving PTZ (40 mg/kg, I.P.), each mouse was pretreated with either an Example compound, ML218, Z944 or vehicle (2% DMSO in 0.5% HPC). Fatality rate (%) of mice in each group that dies within the 20 minutes observation period—was calculated. Both fatality rate and latency (data not shown) to death were used to evaluate the Example compound's ability to prevent death resulting from PTZ-induced seizures. A cutoff of 20 minutes was set for observational and statistical analysis purposes.
It is well known that antiepileptics, e.g. carbamazepine, lamotrigine and gabapentin are used for the treatment of neuropathic pain (Xie et al., 1995, Caviedes and Herranz, 2001). T-channel overactivation is involved in the generation of seizure activity (Huguenard, 1998, Cribbs et al., 2000, Perez-Reyes et al., 2009, Perez-Reyes, 2010). […] Fatality latency and rate—the percentage (%) of mice in each treatment group that died within a 20 minute cutoff of the observational period, were recorded and calculated. Averaged fatality latency and rate of each treatment group was used to evaluate the Example compound's ability to either prevent or delay the onset of PTZ-induced seizures and death.

In the next data set the target is T2, Cav3.3 (Homo sapiens, UniProt Q9P0X4).
T2 construct: expressed in transfected cells; host or cells: HEK-293, tetracycline inducible expression system (Invitrogen)
The data set is described as follows: Whole-cell patch clamp of T-type Cav3.3 channel expressed in HEK293 cells. Format: cell-based. The following applies: Table 2. As to the method:
as §1, §2

In another data set the target is T3, hERG channel (Homo sapiens, UniProt Q12809).
T3 construct: expressed in transfected cells; host or cells: CHO
T3 sequence (Q12809 whole entry): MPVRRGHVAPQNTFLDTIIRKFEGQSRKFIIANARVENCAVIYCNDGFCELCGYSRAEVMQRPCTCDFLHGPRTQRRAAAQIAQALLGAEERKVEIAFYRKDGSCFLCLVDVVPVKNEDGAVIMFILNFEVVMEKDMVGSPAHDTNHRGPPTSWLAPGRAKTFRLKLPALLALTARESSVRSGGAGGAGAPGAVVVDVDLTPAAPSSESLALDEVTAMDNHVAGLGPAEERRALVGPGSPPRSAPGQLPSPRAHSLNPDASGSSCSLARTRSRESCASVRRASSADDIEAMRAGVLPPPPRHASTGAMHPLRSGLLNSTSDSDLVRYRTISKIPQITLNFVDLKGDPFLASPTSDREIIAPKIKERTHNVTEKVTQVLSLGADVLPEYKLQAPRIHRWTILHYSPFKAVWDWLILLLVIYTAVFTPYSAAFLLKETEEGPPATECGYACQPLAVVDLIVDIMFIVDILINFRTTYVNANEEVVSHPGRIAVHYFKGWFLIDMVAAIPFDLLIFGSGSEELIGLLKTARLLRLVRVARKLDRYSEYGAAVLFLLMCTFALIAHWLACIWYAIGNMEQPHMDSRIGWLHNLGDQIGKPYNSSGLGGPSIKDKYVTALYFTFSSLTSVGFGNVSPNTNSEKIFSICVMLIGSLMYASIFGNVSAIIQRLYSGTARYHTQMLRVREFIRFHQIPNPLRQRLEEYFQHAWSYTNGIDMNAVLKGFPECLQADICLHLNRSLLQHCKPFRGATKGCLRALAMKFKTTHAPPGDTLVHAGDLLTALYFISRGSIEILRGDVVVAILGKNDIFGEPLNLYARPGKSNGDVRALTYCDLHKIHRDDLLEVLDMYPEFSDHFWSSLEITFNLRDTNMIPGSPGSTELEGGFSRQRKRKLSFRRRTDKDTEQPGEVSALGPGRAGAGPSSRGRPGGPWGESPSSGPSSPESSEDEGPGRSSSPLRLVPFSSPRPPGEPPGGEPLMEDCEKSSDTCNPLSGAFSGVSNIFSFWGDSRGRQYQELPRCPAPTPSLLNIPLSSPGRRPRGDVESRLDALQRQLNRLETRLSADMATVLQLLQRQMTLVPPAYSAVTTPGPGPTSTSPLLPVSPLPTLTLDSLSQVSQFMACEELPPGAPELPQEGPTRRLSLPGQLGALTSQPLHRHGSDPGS
As to the kind of experiment: hERG patch clamp in hERG-expressing CHO cells. Format: cell-based. The settings on record: for IC50: Table 2, read-out: hERG IC50. As to the method: Sodium and potassium channels in the rodent DRG neurons were recorded and tested as described above. The human ether-a-go-go-related gene (hERG) encodes the rapidly activating potassium channel (IKr) contributing to the repolarization of the cardiac action potential. […] Therefore the representative example compounds in Table 2 were tested against the hERG channel.
Whole-cell patch clamp electrophysiology is employed to test compounds and a positive control compound. Extracellular Ringer's solution contains (in mM): NaCl (130), KCl (5), CaCl2 (1), Glucose (10), HEPES-Na (10) (pH 7.4 adjusted with HCl). Internal pipette solution contains (in mM): KF (120), CaCl2 (1), MgCl2 (1), KCl (10), EGTA (11), HEPES (10), KOH (11) (pH 7.2 adjusted with KOH). The hERG potassium currents are recorded under a holding potential of −80 mV and then depolarized to 40 mV for 2.5 seconds to activate the hERG channel. The peak tail currents are induced by a repolarizing pulse to −50 mV for 4 seconds. A 250 millisecond prepulse to −50 mV is applied for leak subtraction. This voltage-clamp pulse protocol is performed continuously during the experiment every 20 seconds allowing recovery from inactivation. For IC50 determination, each concentration is applied for 2 mins to reach a steady-state inhibitory level prior to the next higher concentrations tested. Each concentration is tested at 2-3 times (n=2-3).
In general terms: hERG is a cardiac potassium channel; its block is linked to QT prolongation.

T1 sequence (O43497 whole entry): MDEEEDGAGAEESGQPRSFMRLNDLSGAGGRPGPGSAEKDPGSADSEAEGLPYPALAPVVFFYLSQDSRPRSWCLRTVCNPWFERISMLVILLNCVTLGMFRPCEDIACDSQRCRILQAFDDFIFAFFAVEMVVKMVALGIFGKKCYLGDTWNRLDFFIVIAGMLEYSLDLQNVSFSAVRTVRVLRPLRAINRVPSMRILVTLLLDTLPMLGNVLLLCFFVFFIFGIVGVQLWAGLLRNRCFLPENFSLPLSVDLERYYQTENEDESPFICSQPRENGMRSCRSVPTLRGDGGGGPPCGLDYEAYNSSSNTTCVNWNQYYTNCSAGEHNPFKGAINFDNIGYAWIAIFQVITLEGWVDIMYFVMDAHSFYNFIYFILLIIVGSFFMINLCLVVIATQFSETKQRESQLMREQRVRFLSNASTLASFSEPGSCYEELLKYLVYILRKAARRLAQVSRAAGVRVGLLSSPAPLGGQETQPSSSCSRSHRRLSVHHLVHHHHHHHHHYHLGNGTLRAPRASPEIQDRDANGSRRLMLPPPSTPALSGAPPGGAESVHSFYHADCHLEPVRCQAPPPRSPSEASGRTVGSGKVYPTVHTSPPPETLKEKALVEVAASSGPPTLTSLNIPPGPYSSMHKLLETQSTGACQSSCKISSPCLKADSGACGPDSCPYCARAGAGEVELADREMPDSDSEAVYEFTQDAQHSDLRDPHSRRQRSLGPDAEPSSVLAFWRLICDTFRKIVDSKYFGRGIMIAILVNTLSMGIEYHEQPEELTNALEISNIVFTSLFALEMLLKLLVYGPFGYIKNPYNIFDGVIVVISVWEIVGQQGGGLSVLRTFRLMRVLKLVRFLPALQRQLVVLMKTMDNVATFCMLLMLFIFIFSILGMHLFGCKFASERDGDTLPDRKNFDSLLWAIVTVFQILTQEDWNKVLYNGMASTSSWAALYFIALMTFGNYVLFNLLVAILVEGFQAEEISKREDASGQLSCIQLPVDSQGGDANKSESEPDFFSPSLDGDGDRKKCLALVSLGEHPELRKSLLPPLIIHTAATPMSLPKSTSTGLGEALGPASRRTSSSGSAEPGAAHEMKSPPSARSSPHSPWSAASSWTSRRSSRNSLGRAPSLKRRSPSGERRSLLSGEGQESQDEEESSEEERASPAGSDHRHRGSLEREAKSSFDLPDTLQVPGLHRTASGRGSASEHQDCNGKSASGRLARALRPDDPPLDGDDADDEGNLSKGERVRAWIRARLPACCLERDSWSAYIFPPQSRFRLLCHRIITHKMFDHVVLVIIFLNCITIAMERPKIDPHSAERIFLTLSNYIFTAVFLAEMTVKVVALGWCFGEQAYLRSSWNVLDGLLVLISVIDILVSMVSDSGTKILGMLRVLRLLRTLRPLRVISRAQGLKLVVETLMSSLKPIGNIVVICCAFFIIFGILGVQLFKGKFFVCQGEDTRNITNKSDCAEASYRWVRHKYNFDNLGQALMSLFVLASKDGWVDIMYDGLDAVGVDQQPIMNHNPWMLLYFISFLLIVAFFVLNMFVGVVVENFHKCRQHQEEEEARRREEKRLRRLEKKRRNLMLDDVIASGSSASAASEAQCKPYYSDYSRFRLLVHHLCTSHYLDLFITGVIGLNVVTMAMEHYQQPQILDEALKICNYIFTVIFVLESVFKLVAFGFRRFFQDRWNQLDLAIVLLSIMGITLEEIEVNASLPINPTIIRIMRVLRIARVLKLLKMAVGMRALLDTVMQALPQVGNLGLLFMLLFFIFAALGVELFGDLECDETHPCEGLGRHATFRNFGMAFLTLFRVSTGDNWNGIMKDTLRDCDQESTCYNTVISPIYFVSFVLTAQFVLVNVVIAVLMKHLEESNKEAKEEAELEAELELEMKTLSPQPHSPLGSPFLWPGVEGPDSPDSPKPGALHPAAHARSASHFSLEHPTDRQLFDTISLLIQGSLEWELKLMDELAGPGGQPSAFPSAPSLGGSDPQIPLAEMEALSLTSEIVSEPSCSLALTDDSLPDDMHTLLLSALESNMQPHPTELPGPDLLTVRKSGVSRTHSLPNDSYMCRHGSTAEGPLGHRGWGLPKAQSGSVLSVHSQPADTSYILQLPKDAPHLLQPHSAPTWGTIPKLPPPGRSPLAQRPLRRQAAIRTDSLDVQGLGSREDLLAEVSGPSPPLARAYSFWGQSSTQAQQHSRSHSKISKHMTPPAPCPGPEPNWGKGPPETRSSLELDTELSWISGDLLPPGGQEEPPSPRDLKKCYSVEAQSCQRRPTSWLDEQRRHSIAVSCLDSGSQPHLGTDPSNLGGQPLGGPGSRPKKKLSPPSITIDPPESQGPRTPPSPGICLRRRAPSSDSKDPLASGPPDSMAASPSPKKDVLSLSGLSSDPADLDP

Broadly, the IC50 is the point on the concentration scale where inhibition reaches its midpoint. On Cav3.1, `CC(C)(C)NC(=O)CN1CCC2(CC1)C[C@H]2NC(=O)c1cc(F)cc(C(F)(F)F)c1` (single isomer, unassigned) [Example 130, (R)—N-(6-(2-(tert-Butylamino)-2-oxoethyl)-6-azaspiro[2.5]octan-1-yl)-3-fluoro-5-(trifluoromethyl)benzamide or (S)—N-(6-(2-(tert-Butylamino)-2-oxoethyl)-6-azaspiro[2.5]octan-1-yl)-3-fluoro-5-(trifluoromethyl)benzamide] gave an IC50 of 110 nM. In data set [1], the latency to seizures result was “significantly prolonged latencies to seizures”, the fatality latency entry is given as “prolonged fatality latencies” and the fatality rate result is listed as “decreased the fatality rate”. On Cav3.3, this compound gave an IC50 of 280 nM. For the same compound, the IC50 at hERG channel was 8000 nM.
`CC(C)(C)CCN1C[C@@H]2[C@@H](CNC(=O)c3cc(Cl)cc(Cl)c3)[C@@H]2C1` [ML218, 3,5-Dichloro-N-[[(1α,5α,6-exo,6α)-3-(3,3-dimethylbutyl)-3-azabicyclo[3.1.0]hex-6-yl]methyl]benzamide, reference compound] displayed an IC50 on Cav3.1 of 140 nM. For the same compound, in data set [1], the “PTZ-induced Fatality (%)” value worked out at 50%, the latency to seizures result is “significantly prolonged latencies to seizures”, the fatality latency entry is on record as “prolonged fatality latencies” and the fatality rate entry is “decreased the fatality rate”. The compound further had an IC50 against Cav3.3 of 270 nM. The IC50 on hERG channel stood at 2100 nM.
At Cav3.1, `CC(C)(C)NC(=O)CN1CCC2(CC1)CC2C(=O)Nc1cc(F)cc(C(F)(F)F)c1` (centres unmarked) [Example 141, 6-(2-(tert-Butylamino)-2-oxoethyl)-N-(3-fluoro-5-(trifluoromethyl)phenyl)-6-azaspiro[2.5]octane-1-carboxamide] showed an IC50 of 340 nM. Further, in data set [1], the latency to seizures entry was “significantly prolonged latencies to seizures”, the fatality latency entry is recorded as “prolonged fatality latencies” and the fatality rate entry is on record as “decreased the fatality rate”. The same compound had an IC50 against Cav3.3 of 230 nM. For the same compound, the half-maximal inhibitory concentration (IC50) on hERG channel was determined as 17400 nM.
`CC(C)(C)CCN1CCC2(CC1)C[C@H]2NC(=O)c1cc(C(F)(F)F)cc(C(F)(F)F)c1` (single isomer, unassigned) [Example 146, (R)—N-(6-(3,3-dimethylbutyl)-6-azaspiro[2.5]octan-1-yl)-3,5-bis(trifluoromethyl)benzamide or (S)—N-(6-(3,3-dimethylbutyl)-6-azaspiro[2.5]octan-1-yl)-3,5-bis(trifluoromethyl)benzamide] registered an IC50 against Cav3.1 of 120 nM. Besides, in data set [1], the latency to seizures entry is “significantly prolonged latencies to seizures”, the fatality latency entry is “prolonged fatality latencies” and the fatality rate entry is “decreased the fatality rate”. Also, the IC50 against Cav3.3 worked out at 110 nM. Moreover, at hERG channel, the IC50 came out at 1200 nM.
Regarding `CC(C)(C)NC(=O)CN1CCC(CNC(=O)c2cc(F)cc(Cl)c2)CC1` [Z944, reference compound], the IC50 on Cav3.1 amounted to 110 nM. For the same compound, in data set [1], the “PTZ-induced Fatality (%)” value was found to be 33.3%, the latency to seizures entry is “significantly prolonged latencies to seizures”, the fatality latency entry was “prolonged fatality latencies” and the fatality rate result is listed as “decreased the fatality rate”. In addition, at Cav3.3, half-maximal inhibition (IC50) required 570 nM. Further, on hERG channel, the IC50 was 9500 nM.
Regarding `CC(C)(C)NC(=O)CN1CCC2(CC1)C[C@H]2NC(=O)c1cc(Cl)cc(Cl)c1` (single isomer, unassigned) [Example 57, (R)—N-(6-(2-(tert-Butylamino)-2-oxoethyl)-6-azaspiro[2.5]octan-1-yl)-3,5-dichlorobenzamide or (S)—N-(6-(2-(tert-Butylamino)-2-oxoethyl)-6-azaspiro[2.5]octan-1-yl)-3,5-dichlorobenzamide], half-maximal inhibition against Cav3.1 (IC50) required 130 nM. Moreover, in data set [1], the latency to seizures entry was “significantly prolonged latencies to seizures”, the fatality latency result was “prolonged fatality latencies” and the fatality rate entry is reported as “decreased the fatality rate”. In addition, at Cav3.3, the IC50 stood at 98 nM. For the same compound, the inhibition at 1 µM on hERG channel (human, CHO cells expressing hERG, pH 7.4, 1 μM, values in brackets, read-out: hERG (%) inh. at 1 μM) is 22%.
Regarding `CC(C)(C)CCN1CCC2(CC1)C[C@H]2NC(=O)c1cc(C(F)(F)F)ccc1Cl` (single isomer, unassigned) [Example 147, (R)-2-Chloro-N-(6-(3,3-dimethylbutyl)-6-azaspiro[2.5]octan-1-yl)-5-(trifluoromethyl)benzamide or (S)-2-Chloro-N-(6-(3,3-dimethylbutyl)-6-azaspiro[2.5]octan-1-yl)-5-(trifluoromethyl)benzamide], the figures for the IC50 at Cav3.1, against Cav3.3 and on hERG channel were 2410 nM, 1580 nM and 1800 nM, respectively. In data set [1], the latency to seizures entry was “significantly prolonged latencies to seizures”. Moreover, the fatality latency result in data set [1] was “prolonged fatality latencies”. In addition, in data set [1], the fatality rate result is reported as “decreased the fatality rate”.
For `CC(C)(C)NC(=O)CN1CCC2(CC1)C[C@H]2NC(=O)C12CC3CC(CC(C3)C1)C2` (single isomer, unassigned) [Example 145, N—((R)-6-(2-(tert-butylamino)-2-oxoethyl)-6-azaspiro[2.5]octan-1-yl)adamantane-1-carboxamide or N—((S)-6-(2-(tert-butylamino)-2-oxoethyl)-6-azaspiro[2.5]octan-1-yl)adamantane-1-carboxamide], the IC50 against Cav3.1 was 70 nM. For the same compound, in data set [1], the latency to seizures result is given as “significantly prolonged latencies to seizures”, the fatality latency result is recorded as “prolonged fatality latencies” and the fatality rate result is on record as “decreased the fatality rate”. Moreover, half-maximal inhibition against Cav3.3 (IC50) was put at 310 nM. Further, on hERG channel, the IC50 was over 30000 nM.
